Measured values taken from patent US9593376B2, “Natural killer p30 (NKp30) dysfunction and the biological applications thereof” (INSTITUT GUSTAVE ROUSSY, priority 2008, dated 2017).
Counter-ions that a name gives are not always drawn.

Tests used:
[1] = test system: alternative splicing of NCR3 gene (NKp30 SHORT, INTER, LONG isoforms) in NK92 cells; assay: Modulation of alternative splicing of NCR3 gene in NK92 cells (RT-PCR of NKp30 isoform proportions); format: cell-based, human; details: 2 μM with IL-2 (50 UI/ml), 36 h at 37° C., FIG. 14B
Description: (§1) FIG. 14. Modulation of alternative splicing of NCR3 gene with histone deacetylase inhibitors and DNA methyltransferase inhibitors (part A of experimental section)
(§2) NKp30 isoform proportions are shown as the ratio of the sum of WT—(variable Ig-like) and DEL—(constant Ig-like) extracellular domain relative quantities of each isoform (SHORT-, INTER- and LONG-tail isoforms) and the total quantity of the six isoforms.
(B) NK92 cells were seeded (5.10^5 NK/well) in 96 wells plates and incubated with 5-azacitidine (2 μM) (5AZA) and IL-2 (50 Ul/ml) for 36 h at 37° C.
(§3) Total cellular RNA was isolated from PBMC and NK cell lines with the RNeasy kit (Qiagen). First strand cDNA was synthesized from 5 μg of total RNA using SuperScript™ II Reverse Transcriptase and random primers (Promega) according to Invitrogen's instructions.
(§4) Modulation of NCR3 Alternative Splicing by HDAC and Demethylating Agents.
NK92 cells were seeded (5.10^5 NK/well) in 96 wells plates and incubated with 5-azacitidine (2 μM) and IL-2 (50 Ul/ml) for 36 h at 37° C.
(§5) Several approaches modulating alternative splicing may be used to operate a switch from NKp30 INTER^Low/SHORT^High/LONG^High (identified as profile B following the first results obtained in the present study (part A.)) towards NKp30 INTER^High/SHORT^Low/LONG^Low (identified as profile A following the first results obtained in the present study (part A.)). […]

[2] = test system: NKp30 transcriptional profile (PBMC of GIST patients); assay: NKp30 transcriptional profile stability in GIST patients during the course of imatinib mesylate treatment; format: in vivo, human; details: GIST therapy, spanning several years in some cases, four patients, FIG. 4
Description: FIG. 4. Representation of NKp30 transcriptional profile intra-individual stability in four GIST patients during the course of treatment
NKP30 transcriptional profile. NKp30 isoform proportions are shown as the ratio of the relative quantities of each isoform and the total quantity of the six isoforms. For each patient, the numbers in brackets represent the time post-treatment in months.
as §3
For the “GIST patients and Healthy Volunteers” cohort, real time quantitative PCR amplifications were conducted using FastStart DNA Master SYBRGreen I Mix according to the manufacturer's instructions, with 0.3 μM primers, 2 mM MgCl2 and cDNAs, in a 20 μl final reaction volume. Thermocycling was performed using a LightCycler (Roche Molecular System) initiated by 10 min incubation at 95° C., followed by 38 cycles (95° C., 1 s; 65° C., 10 s; 72° C., 20 s). NKp30 mRNA expression level was normalized by dividing its relative mRNA amount with the corresponding GAPDH mRNA amount.

[3] = test system: alternative splicing of NCR3 gene (NKp30 SHORT, INTER, LONG isoforms) in YTS cells; assay: Modulation of alternative splicing of NCR3 gene in YTS cells (RT-PCR of NKp30 isoform proportions); format: cell-based, human; details: 100 nM, 45 h at 37° C., FIG. 14A
Description: as §1, §2
(A) YTS cells were seeded (5.10^5 NK/well) in 96 wells plates and incubated with trichostatine A (100 nM) (TSA) for 45 h at 37° C.
as §3, §4
YTS cells were seeded (5.10^5 NK/well) in 96 wells plates and incubated with trichostatine A (100 nM) for 45 h at 37° C.
as §5

[4] = test system: wild-type NCR3 gene splicing (NKp30 isoforms); assay: Modulation of wild-type NCR3 gene splicing by antisense oligonucleotides; details: SEQ ID NO: 49-51 used in combination; no experiment described

Nc1ncn([C@@H]2O[C@H](CO)[C@@H](O)[C@H]2O)c(=O)n1 [5-azacitidine]
Proportions of NKp30 INTER, SHORT and LONG isoforms [1]: significant over-representation of INTER isoforms associated with an under-representation of SHORT and LONG isoforms

Cc1ccc(NC(=O)c2ccc(CN3CCN(C)CC3)cc2)cc1Nc1nccc(-c2cccnc2)n1 [imatinib mesylate]
Modulation of the pattern of NKp30 expression overtime [2]: did not appear to modulate the pattern of NKp30 expression overtime

CC(/C=C/C(=O)NO)=C\[C@@H](C)C(=O)c1ccc(N(C)C)cc1 [trichostatin A]
Proportions of NKp30 INTER, SHORT and LONG isoforms [3]: significant over-representation of INTER isoforms associated with an under-representation of SHORT and LONG isoforms

antisense oligonucleotides corresponding to SEQ ID NO: 49-51: three antisense oligonucleotides used in combination: target polyadenylation signal 1, polyadenylation site 1, and INTER blocking (antisense 1 GGGGCAGATTTATTGGGGTC; antisense 2 CTCATGAGGAGTTAGTGGT; antisense 3 GTGACAGTGGCCTGGTCAGA; listed as DNA, chemistry not given here)
Representation of NKp30 INTER, SHORT and LONG isoforms compared to reference or mean values [4]: significant (relative) under-representation of NKp30 INTER isoforms associated with a relative over-representation of NKp30 SHORT and LONG isoforms
